Measured values from the supplement of paper PMC10307832.

Key:
Test in all cases: relative viability (nuclei count vs DMSO), 5 days (fraction); higher = more cells survive
XMD13-2 + Bortezomib = compound: C1CC1C(=O)NC2=NNC3=C2C=CC(=C3)C4=CC(=CC=C4)C(=O)NC5CC5 [XMD13-2] + CC(C)C[C@H](NC(=O)[C@H](Cc1ccccc1)NC(=O)c1cnccn1)B(O)O [Bortezomib] (partner 0.002 µM)
In short: (§1)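 A single step with final 0.05% Triton X-100, 1% formaldehyde and 1 ug/ml Hoechst fixed the cells and stained nuclei 5 days after treatment. Lung cancer cell lines in 1536-well plates had been treated by pin tool the day after seeding with one drug alone or a fixed anchor-drug dose plus five library-drug doses (not always all listed) in √10 steps, and nuclei were counted on 4× images. Relative viability is the ratio of nuclei in treated wells to nuclei in vehicle wells, taken as the median of duplicate plates.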

XMD13-2 + Pemetrexed = compound: C1CC1C(=O)NC2=NNC3=C2C=CC(=C3)C4=CC(=CC=C4)C(=O)NC5CC5 [XMD13-2] + Nc1nc2[nH]cc(CCc3ccc(C(=O)N[C@@H](CCC(=O)O)C(=O)O)cc3)c2c(=O)[nH]1 [Pemetrexed] (partner 0.2 µM)
In short: as §1

XMD13-2 + Linsitinib = compound: C1CC1C(=O)NC2=NNC3=C2C=CC(=C3)C4=CC(=CC=C4)C(=O)NC5CC5 [XMD13-2] + C[C@]1(O)C[C@@H](c2nc(-c3ccc4ccc(-c5ccccc5)nc4c3)c3c(N)nccn32)C1 [Linsitinib] (partner 1 µM)
In short: as §1

ALW-II-49-7 + Pictilisib = compound: Cc1ccc(C(=O)Nc2cccc(C(F)(F)F)c2)cc1Nc1cncc(C(N)=O)c1 [ALW-II-49-7] + CS(=O)(=O)N1CCN(Cc2cc3nc(-c4cccc5[nH]ncc45)nc(N4CCOCC4)c3s2)CC1 [Pictilisib] (partner 1 µM)
In short: as §1

Cell Line | relative viability (XMD13-2 + Bortezomib; first compound 0.05 µM) | relative viability (XMD13-2 + Bortezomib; first compound 0.1581 µM) | relative viability (XMD13-2 + Bortezomib; first compound 0.5 µM) | relative viability (XMD13-2 + Bortezomib; first compound 1.581 µM) | relative viability (XMD13-2 + Bortezomib; first compound 5 µM) | relative viability (XMD13-2 + Pemetrexed; first compound 0.05 µM) | relative viability (XMD13-2 + Pemetrexed; first compound 0.1581 µM) | relative viability (XMD13-2 + Pemetrexed; first compound 0.5 µM) | relative viability (XMD13-2 + Pemetrexed; first compound 1.581 µM) | relative viability (XMD13-2 + Pemetrexed; first compound 5 µM) | relative viability (XMD13-2 + Linsitinib; first compound 0.05 µM) | relative viability (XMD13-2 + Linsitinib; first compound 0.1581 µM) | relative viability (XMD13-2 + Linsitinib; first compound 0.5 µM) | relative viability (XMD13-2 + Linsitinib; first compound 1.581 µM) | relative viability (XMD13-2 + Linsitinib; first compound 5 µM) | relative viability (ALW-II-49-7 + Pictilisib; first compound 0.08 µM) | relative viability (ALW-II-49-7 + Pictilisib; first compound 0.253 µM) | relative viability (ALW-II-49-7 + Pictilisib; first compound 0.8 µM) | relative viability (ALW-II-49-7 + Pictilisib; first compound 2.53 µM) | relative viability (ALW-II-49-7 + Pictilisib; first compound 8 µM)
NCI-H2085 | 1.09 | 1.07 | 1.15 | 0.93 | 1.1 | 0.959 | 0.838 | 0.977 | 0.789 | 1.03 | 0.894 | 0.819 | 0.873 | 0.984 | 0.963 | 0.499 | 0.496 | 0.445 | 0.5 | 0.537
NCI-H2087 | 0.917 | 1.25 | 1.08 | 0.782 | 0.856 | 0.635 | 0.661 | 0.624 | 0.67 | 0.583 | 0.922 | 0.991 | 0.869 | 0.811 | 0.784 | 1.12 | 1.14 | 0.722 | 0.959 | 0.933
NCI-H2126 | 1.16 | 1.09 | 1.18 | 1.05 | 1.13 | 0.748 | 0.656 | 0.634 | 0.704 | 0.647 | 0.697 | 0.693 | 0.755 | 0.662 | 0.703 | 0.493 | 0.473 | 0.514 | 0.471 | 0.502
NCI-H2228 | 1.48 | 1.16 | 1 | 1 | 0.872 | 0.354 | 0.315 | 0.339 | 0.31 | 0.27 | 0.735 | 0.83 | 0.768 | 0.546 | 0.622 | 0.477 | 0.464 | 0.428 | 0.34 | 0.254
NCI-H2347 | 1.02 | 0.977 | 1.09 | 0.952 | 1.09 | 0.458 | 0.443 | 0.446 | 0.453 | 0.45 | 0.973 | 0.951 | 0.973 | 0.924 | 0.972 | 0.519 | 0.505 | 0.505 | 0.633 | 0.493
NCI-H2405 | 1.07 | 0.964 | 0.957 | 0.926 | 0.991 | 1.18 | 1.02 | 1.11 | – | 1.07 | 0.936 | 0.975 | 0.958 | 0.939 | 1.03 | 0.409 | 0.526 | 0.368 | 0.345 | 0.366
NCI-H3122 | 1.06 | 1.05 | 1.02 | 1.1 | 0.985 | 0.193 | 0.195 | 0.199 | 0.199 | 0.195 | 1.02 | 1.01 | 1.04 | 1.06 | 0.951 | 0.695 | 0.458 | 0.614 | 0.708 | 0.971
PC-3 [JPC-3] | 0.807 | 0.778 | 0.884 | 0.871 | 0.867 | 1.23 | 1.04 | 1.14 | – | 1.12 | 0.915 | 0.961 | 1.01 | 0.906 | 1.01 | 0.657 | 0.799 | 0.745 | 0.711 | 0.616
PC-14 | 0.903 | 0.888 | 0.828 | 0.806 | 0.916 | 0.14 | 0.131 | 0.118 | 0.148 | 0.13 | 0.986 | 1.04 | 0.958 | 0.878 | 0.927 | 0.602 | 0.599 | 0.696 | 0.544 | 0.553
RERF-LC-KJ | 1.08 | 1.05 | 1.2 | 0.97 | 1.14 | 0.478 | 0.425 | 0.476 | 0.385 | 0.463 | 0.916 | 0.89 | 0.947 | 0.817 | 0.871 | 0.599 | 0.557 | 0.608 | 0.542 | 0.624
SK-LU-1 | 1.26 | 1.41 | 1.1 | 0.764 | 1.15 | 0.997 | 0.964 | 1.01 | 0.977 | 0.948 | 1.1 | 1.19 | 1.45 | 0.929 | 1.14 | 0.522 | 0.715 | 0.44 | – | 0.514
SW 1573 | 0.974 | 1.03 | 1.03 | 0.977 | 0.947 | 0.831 | 0.847 | 0.788 | 0.79 | 0.814 | 0.82 | 0.745 | 0.849 | 0.71 | 0.577 | 0.475 | 0.486 | 0.465 | 0.47 | 0.465
